# Laboratory results as given in article PMC10845951, “Characterization of a selective, iron-chelating antifungal compound that disrupts fungal metabolism and synergizes with fluconazole” (Microbiology Spectrum, 2024).
# Tested on: C. glabrata gene expression
# Assay: RNA sequencing (gene regulation)
# Type: cell-based, Candida glabrata
# Conditions: for Log2 Fold-Change: vs DMSO; for Regulation Status: 26CvsDMSO
# Description: Cells from overnight precultures in YPD medium were reinoculated in fresh YNB −iron medium (see “Culture maintenance” for contents) without iron and grown until OD600 of 0.4. […] Cells were collected from three independent experiments, snap frozen, and stored at −80°C. Total RNA purification was performed as previously described using the RNeasy Mini Kit (74104, Qiagen), and gDNA removal was made using the RNase-Free DNase Set kit (79254, Qiagen). RNA quantification and quality control were done with a Tape Station 4150 (Agilent) ([59]).
# Library preparation and sequencing were performed at GenomEast (IGBMC, Illkirch, France). One DMSO 0.05% sample was excluded from the analysis due to insufficient quality. The library was sequenced on Illumina Hiseq 4000 sequencer as single-read 50-base reads following Illumina’s instructions. Reads were pre-processed in order to remove adapter, polyA, and low-quality sequences (Phred quality score below 20). Reads shorter than 40 bases were discarded from further analysis. These pre-processing steps were performed using cutadapt version 1.10 ([60]). Image analysis and base calling were performed using RTA 2.7.7 and bcl2fastq2.17.1.14. Adapter dimer reads were removed using DimerRemover (https://sourceforge.net/projects/dimerremover/). The quality of the RNAseq reads was examined using FastQC 0.11.2 (http://www.bioinformatics.babraham.ac.uk/projects/fastqc/) and FastQScreen 0.5.1 (https://www.bioinformatics.babraham.ac.uk/projects/fastq_screen/). Reads were mapped onto the ASM254v2 assembly of Candida glabrata genome using STAR version 2.5.3a ([61]). Gene expression quantification was performed from uniquely aligned reads using htseq-count version 0.6.1p1 ([62]), with annotations from Ensembl fungi version 50 and union mode. Only non-ambiguously assigned reads have been retained for further analyses. Read counts were normalized across samples with the median-of-ratios method ([63]). Comparisons were implemented in the Bioconductor package DESeq2 version 1.16.1 using the test for differential expression ([64]). Genes with no P-value corresponded to genes with high Cook’s distance that were filtered out. P-values were adjusted for multiple testing using the Benjamini and Hochberg method ([65]). Genes with no adjusted P-value correspond to genes filtered out in the independent filtering step in order to remove reads from genes that have no or little chance of showing evidence of significant differential expression.
smiles,measurement,setting,value
"c1ccc(-c2cccc(-c3ccccn3)n2)nc1 [2,2′:6′,2′′-terpyridine]",Log2 Fold-Change,TSA1 CAGL0K06259g,1.052
same,Log2 Fold-Change,ZPR1 CAGL0K00759g,0.6092
same,Regulation Status,gene CAGL0F07029g MET13,Downregulated
same,Regulation Status,gene CAGL0F07513g,Downregulated
same,Regulation Status,gene CAGL0F08481g,Downregulated
same,Regulation Status,gene CAGL0F08503g,Downregulated
same,Regulation Status,gene CAGL0F09163g,Downregulated
same,Regulation Status,gene CAGL0G01903g MET1,Downregulated
same,Regulation Status,gene CAGL0G02695g,Downregulated
same,Regulation Status,gene CAGL0G03619g,Downregulated
same,Regulation Status,gene CAGL0G03861g,Downregulated
same,Regulation Status,gene CAGL0G03883g,Downregulated
same,Regulation Status,gene CAGL0G03905g,Downregulated
same,Regulation Status,gene CAGL0G06050g,Downregulated
same,Regulation Status,gene CAGL0G06402g,Downregulated
same,Regulation Status,gene CAGL0G06600g,Downregulated
same,Regulation Status,gene CAGL0G06732g,Downregulated
same,Regulation Status,gene CAGL0G07711g,Downregulated
same,Regulation Status,gene CAGL0G08712g KGD1,Downregulated
same,Regulation Status,gene CAGL0G09581g,Downregulated
same,Regulation Status,gene CAGL0G10131g,Downregulated
same,Regulation Status,gene CAGL0G10153g,Downregulated
same,Regulation Status,gene CAGL0H02365g,Downregulated
same,Regulation Status,gene CAGL0H02491g,Downregulated
same,Regulation Status,gene CAGL0H02541g,Downregulated
same,Regulation Status,gene CAGL0H03531g MNP1,Downregulated
same,Regulation Status,gene CAGL0H03795g LEU2,Downregulated
same,Regulation Status,gene CAGL0H03993g CIT1,Downregulated
same,Regulation Status,gene CAGL0H05775g,Downregulated
same,Regulation Status,gene CAGL0H05797g,Downregulated
same,Regulation Status,gene CAGL0H06732g,Downregulated
same,Regulation Status,gene CAGL0H06743g,Downregulated
same,Regulation Status,gene CAGL0H07023g,Downregulated
same,Regulation Status,gene CAGL0H08283g HSP10,Downregulated
same,Regulation Status,gene CAGL0H09306g,Downregulated
same,Regulation Status,gene CAGL0H09328g,Downregulated
same,Regulation Status,gene CAGL0H10076g,Downregulated
same,Regulation Status,gene CAGL0I00924g,Downregulated
same,Regulation Status,gene CAGL0I01276g,Downregulated
same,Regulation Status,gene CAGL0I01298g,Downregulated
same,Regulation Status,gene CAGL0I01408g CYC1,Downregulated
same,Regulation Status,gene CAGL0I01496g,Downregulated
same,Regulation Status,gene CAGL0I01848g,Downregulated
same,Regulation Status,gene CAGL0I02728g,Downregulated
same,Regulation Status,gene CAGL0I03190g RIP1,Downregulated
same,Regulation Status,gene CAGL0I04180g AMT1,Downregulated
same,Regulation Status,gene CAGL0I04994g MET6,Downregulated
same,Regulation Status,gene CAGL0I05280g,Downregulated
same,Regulation Status,gene CAGL0I05698g,Downregulated
same,Regulation Status,gene CAGL0I06270g,Downregulated
same,Regulation Status,gene CAGL0I06644g,Downregulated
same,Regulation Status,gene CAGL0I06831g,Downregulated
same,Regulation Status,gene CAGL0I06985g,Downregulated
same,Regulation Status,gene CAGL0I07969g,Downregulated
same,Regulation Status,gene CAGL0I08305g,Downregulated
same,Regulation Status,gene CAGL0I08503g,Downregulated
same,Regulation Status,gene CAGL0I08767g,Downregulated
same,Regulation Status,gene CAGL0I09009g,Downregulated
same,Regulation Status,gene CAGL0I09262g,Downregulated
same,Regulation Status,gene CAGL0I09812g,Downregulated
same,Regulation Status,gene CAGL0I10923g,Downregulated
same,Regulation Status,gene CAGL0J00429g COX6,Downregulated
same,Regulation Status,gene CAGL0J00847g SDH1,Downregulated
same,Regulation Status,gene CAGL0J01463g,Downregulated
same,Regulation Status,gene CAGL0J01699g,Downregulated
same,Regulation Status,gene CAGL0J02090g,Downregulated
same,Regulation Status,gene CAGL0J03806g,Downregulated
same,Regulation Status,gene CAGL0J04026g,Downregulated
same,Regulation Status,gene CAGL0J04268g,Downregulated
same,Regulation Status,gene CAGL0J04554g,Downregulated
same,Regulation Status,gene CAGL0J04884g,Downregulated
same,Regulation Status,gene CAGL0J05302g,Downregulated
same,Regulation Status,gene CAGL0J06380g,Downregulated
same,Regulation Status,gene CAGL0J06490g,Downregulated
same,Regulation Status,gene CAGL0J06820g,Downregulated
same,Regulation Status,gene CAGL0J08316g,Downregulated
same,Regulation Status,gene CAGL0J09680g,Downregulated
same,Regulation Status,gene CAGL0J09790g,Downregulated
same,Regulation Status,gene CAGL0J11484g DUG3,Downregulated
same,Regulation Status,gene CAGL0J11682g,Downregulated
same,Regulation Status,gene CAGL0K00110g AWP2,Downregulated
same,Regulation Status,gene CAGL0K02409g,Downregulated
same,Regulation Status,gene CAGL0K02893g,Downregulated
same,Regulation Status,gene CAGL0K03663g,Downregulated
same,Regulation Status,gene CAGL0K04279g SCM4,Downregulated
same,Regulation Status,gene CAGL0K06677g MET8,Downregulated
same,Regulation Status,gene CAGL0K06853g,Downregulated
same,Regulation Status,gene CAGL0K07315g,Downregulated
same,Regulation Status,gene CAGL0K07678g,Downregulated
same,Regulation Status,gene CAGL0K08184g CCP1,Downregulated
same,Regulation Status,gene CAGL0K08668g MET28,Downregulated
same,Regulation Status,gene CAGL0K08800g ADI1,Downregulated
same,Regulation Status,gene CAGL0K09218g,Downregulated
same,Regulation Status,gene CAGL0K10120g,Downregulated
same,Regulation Status,gene CAGL0K10868g CTA1,Downregulated
same,Regulation Status,gene CAGL0K10956g,Downregulated
same,Regulation Status,gene CAGL0K10978g,Downregulated
same,Regulation Status,gene CAGL0K12100g,Downregulated
same,Regulation Status,gene CAGL0K12958g,Downregulated
same,Regulation Status,gene CAGL0L00429g,Downregulated
same,Regulation Status,gene CAGL0L00759g HIS1,Downregulated
same,Regulation Status,gene CAGL0L00803g,Downregulated
